Experimental data reported in PubChem BioAssay AID2060511 (Molecular Pharmacology Branch, DTP, NCI, 2025).
pIC50: −log10 of the molar value.

Tested on: 422866-222-R5-J1-PDC spheroids with HUVEC/MSC, viability
Assay: Anticancer human tumor 422866-222-R5-J1-PDC patient-derived pancreatic adenocarcinoma cell line growth inhibition [GQUAD]
Details: for pIC50: curve of first compound; for viability, T/C: stronger effect = lower value
Outline: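 Tumor cells were grown as complex spheroids with HUVEC endothelial cells and mesenchymal stem cells as stroma. G-quadruplex stabilizers were combined with targeted agents over half-log dilutions from near the clinical Cmax, or from 10 microM.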

[1] = second compound 0.0316 µM, first compound 0.0316 µM
[2] = second compound 0.0316 µM, first compound 0.1 µM
[3] = second compound 0.0316 µM, first compound 0.316 µM
[4] = second compound 0.0316 µM, first compound 1 µM
[5] = second compound 0.0316 µM, first compound 3.16 µM
[6] = second compound 0.0316 µM, first compound 10 µM
[7] = second compound 0.1 µM, first compound 0.0316 µM
[8] = second compound 0.1 µM, first compound 0.1 µM
[9] = second compound 0.1 µM, first compound 0.316 µM
[10] = second compound 0.1 µM, first compound 1 µM
[11] = second compound 0.1 µM, first compound 3.16 µM
[12] = second compound 0.1 µM, first compound 10 µM
[13] = second compound 0.316 µM, first compound 0.0316 µM
[14] = second compound 0.316 µM, first compound 0.1 µM
[15] = second compound 0.316 µM, first compound 0.316 µM
[16] = second compound 0.316 µM, first compound 1 µM
[17] = second compound 0.316 µM, first compound 3.16 µM
[18] = second compound 0.316 µM, first compound 10 µM
[19] = second compound 1 µM, first compound 0.0316 µM
[20] = second compound 1 µM, first compound 0.1 µM
[21] = second compound 1 µM, first compound 0.316 µM
[22] = second compound 1 µM, first compound 1 µM
[23] = second compound 1 µM, first compound 3.16 µM
[24] = second compound 1 µM, first compound 10 µM
[25] = second compound 3.16 µM, first compound 0.0316 µM
[26] = second compound 3.16 µM, first compound 0.1 µM
[27] = second compound 3.16 µM, first compound 0.316 µM
[28] = second compound 3.16 µM, first compound 1 µM
[29] = second compound 3.16 µM, first compound 3.16 µM
[30] = second compound 3.16 µM, first compound 10 µM
[31] = second compound 10 µM, first compound 0.0316 µM
[32] = second compound 10 µM, first compound 0.1 µM
[33] = second compound 10 µM, first compound 0.316 µM
[34] = second compound 10 µM, first compound 1 µM
[35] = second compound 10 µM, first compound 3.16 µM
[36] = second compound 10 µM, first compound 10 µM
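Note: spheroids exposed to compounds for seven days before reading.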
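Throughout, for viability, T/C: percent viability relative to DMSO vehicle control taken as 100%.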

**Q.** How did the pIC50 (second compound 0.0316 µM) turn out when `CCCS(=O)(=O)Nc1ccc(F)c(C(=O)c2c[nH]c3ncc(-c4ccc(Cl)cc4)cc23)c1F` + Cc1cnc(CNC(=O)c2c(=O)c3ccc(N4CCCN(C)CC4)nc3n3c2sc2ccccc23)cn1 was run?
**A.** < 5.00

**Q.** And the pIC50 (second compound 0.1 µM)?
**A.** < 5.00

**Q.** What about the pIC50 (second compound 0.316 µM) of the same molecule?
**A.** < 5.00

**Q.** What about the pIC50 (second compound 1 µM) of the same molecule?
**A.** < 5.00

**Q.** What about the pIC50 (second compound 3.16 µM) of the same molecule?
**A.** < 5.00

**Q.** And the pIC50 (second compound 10 µM)?
**A.** < 5.00

**Q.** And the viability, T/C [1]?
**A.** 96.8%

**Q.** What about the viability, T/C [2] of the same molecule?
**A.** 89.2%

**Q.** And the viability, T/C [3]?
**A.** 117%

**Q.** What about the viability, T/C [4] of the same molecule?
**A.** 109%

**Q.** What about the viability, T/C [5] of the same molecule?
**A.** 145%

**Q.** What about the viability, T/C [6] of the same molecule?
**A.** 54.9%

**Q.** And the viability, T/C [7]?
**A.** 93.9%

**Q.** And the viability, T/C [8]?
**A.** 87.3%

**Q.** What about the viability, T/C [9] of the same molecule?
**A.** 115%

**Q.** What about the viability, T/C [10] of the same molecule?
**A.** 92%

**Q.** What about the viability, T/C [11] of the same molecule?
**A.** 109%

**Q.** What about the viability, T/C [12] of the same molecule?
**A.** 84.7%

**Q.** What about the viability, T/C [13] of the same molecule?
**A.** 78.6%

**Q.** What about the viability, T/C [14] of the same molecule?
**A.** 90.4%

**Q.** What about the viability, T/C [15] of the same molecule?
**A.** 90%

**Q.** And the viability, T/C [16]?
**A.** 115%

**Q.** What about the viability, T/C [17] of the same molecule?
**A.** 102%

**Q.** And the viability, T/C [18]?
**A.** 86.6%

**Q.** And the viability, T/C [19]?
**A.** 73.2%

**Q.** What about the viability, T/C [20] of the same molecule?
**A.** 80.7%

**Q.** And the viability, T/C [21]?
**A.** 87.2%

**Q.** What about the viability, T/C [22] of the same molecule?
**A.** 110%

**Q.** And the viability, T/C [23]?
**A.** 111%

**Q.** And the viability, T/C [24]?
**A.** 86%

**Q.** And the viability, T/C [25]?
**A.** 72.9%

**Q.** And the viability, T/C [26]?
**A.** 80.9%

**Q.** And the viability, T/C [27]?
**A.** 85.5%

**Q.** And the viability, T/C [28]?
**A.** 93.7%

**Q.** What about the viability, T/C [29] of the same molecule?
**A.** 95.1%

**Q.** What about the viability, T/C [30] of the same molecule?
**A.** 88.7%

**Q.** And the viability, T/C [31]?
**A.** 69.2%

**Q.** What about the viability, T/C [32] of the same molecule?
**A.** 76.2%

**Q.** What about the viability, T/C [33] of the same molecule?
**A.** 109%

**Q.** What about the viability, T/C [34] of the same molecule?
**A.** 86.8%

**Q.** What about the viability, T/C [35] of the same molecule?
**A.** 96%

**Q.** And the viability, T/C [36]?
**A.** 94.2%

**Q.** How did the pIC50 (second compound 0.0316 µM) turn out when `O=C(NO)c1cnc(N2CCN(S(=O)(=O)c3ccc4ccccc4c3)CC2)nc1` + Cc1cnc(CNC(=O)c2c(=O)c3ccc(N4CCCN(C)CC4)nc3n3c2sc2ccccc23)cn1 was run?
**A.** 6.08

**Q.** And the pIC50 (second compound 0.1 µM)?
**A.** 5.79

**Q.** And the pIC50 (second compound 0.316 µM)?
**A.** 5.78

**Q.** What about the pIC50 (second compound 1 µM) of the same molecule?
**A.** 5.76

**Q.** And the pIC50 (second compound 3.16 µM)?
**A.** 5.84

**Q.** And the pIC50 (second compound 10 µM)?
**A.** 6.24

**Q.** And the viability, T/C [1]?
**A.** 89.8%

**Q.** And the viability, T/C [2]?
**A.** 75.8%

**Q.** And the viability, T/C [3]?
**A.** 60.2%

**Q.** And the viability, T/C [4]?
**A.** 43%

**Q.** And the viability, T/C [5]?
**A.** 42%

**Q.** And the viability, T/C [6]?
**A.** 2.99%

**Q.** And the viability, T/C [7]?
**A.** 86.4%

**Q.** And the viability, T/C [8]?
**A.** 75.1%

**Q.** What about the viability, T/C [9] of the same molecule?
**A.** 93.6%

**Q.** What about the viability, T/C [10] of the same molecule?
**A.** 49.1%

**Q.** What about the viability, T/C [11] of the same molecule?
**A.** 40.2%

**Q.** And the viability, T/C [12]?
**A.** 5.96%

**Q.** And the viability, T/C [13]?
**A.** 90.9%

**Q.** And the viability, T/C [14]?
**A.** 84%

**Q.** And the viability, T/C [15]?
**A.** 85.9%

**Q.** And the viability, T/C [16]?
**A.** 52.7%

**Q.** What about the viability, T/C [17] of the same molecule?
**A.** 39.9%

**Q.** What about the viability, T/C [18] of the same molecule?
**A.** 6.44%

**Q.** What about the viability, T/C [19] of the same molecule?
**A.** 71.9%

**Q.** And the viability, T/C [20]?
**A.** 86.8%

**Q.** And the viability, T/C [21]?
**A.** 82.2%

**Q.** What about the viability, T/C [22] of the same molecule?
**A.** 63.1%

**Q.** And the viability, T/C [23]?
**A.** 33.5%

**Q.** What about the viability, T/C [24] of the same molecule?
**A.** 4.12%

**Q.** And the viability, T/C [25]?
**A.** 70.5%

**Q.** And the viability, T/C [26]?
**A.** 91.8%

**Q.** What about the viability, T/C [27] of the same molecule?
**A.** 63.5%

**Q.** What about the viability, T/C [28] of the same molecule?
**A.** 56.9%

**Q.** What about the viability, T/C [29] of the same molecule?
**A.** 35.7%

**Q.** And the viability, T/C [30]?
**A.** 0.26%

**Q.** What about the viability, T/C [31] of the same molecule?
**A.** 72.3%

**Q.** What about the viability, T/C [32] of the same molecule?
**A.** 74.6%

**Q.** What about the viability, T/C [33] of the same molecule?
**A.** 65.1%

**Q.** What about the viability, T/C [34] of the same molecule?
**A.** 33.4%

**Q.** What about the viability, T/C [35] of the same molecule?
**A.** 21%

**Q.** And the viability, T/C [36]?
**A.** 0.26%

**Q.** With `O=c1[nH]cc(F)c(=O)[nH]1` + Cc1cnc(CNC(=O)c2c(=O)c3ccc(N4CCCN(C)CC4)nc3n3c2sc2ccccc23)cn1 as the molecule, how does the pIC50 (second compound 0.0316 µM) read?
**A.** < 5.00

**Q.** What about the pIC50 (second compound 0.1 µM) of the same molecule?
**A.** < 5.00

**Q.** And the pIC50 (second compound 0.316 µM)?
**A.** < 5.00

**Q.** What about the pIC50 (second compound 1 µM) of the same molecule?
**A.** < 5.00

**Q.** What about the pIC50 (second compound 3.16 µM) of the same molecule?
**A.** < 5.00

**Q.** And the pIC50 (second compound 10 µM)?
**A.** < 5.00

**Q.** What about the viability, T/C [1] of the same molecule?
**A.** 90%

**Q.** What about the viability, T/C [2] of the same molecule?
**A.** 93.1%

**Q.** What about the viability, T/C [3] of the same molecule?
**A.** 88.2%

**Q.** What about the viability, T/C [4] of the same molecule?
**A.** 88.8%

**Q.** What about the viability, T/C [5] of the same molecule?
**A.** 78%

**Q.** What about the viability, T/C [6] of the same molecule?
**A.** 78.7%

**Q.** And the viability, T/C [7]?
**A.** 94.5%

**Q.** And the viability, T/C [8]?
**A.** 79.6%

**Q.** What about the viability, T/C [9] of the same molecule?
**A.** 89.4%

**Q.** And the viability, T/C [10]?
**A.** 95.5%

**Q.** And the viability, T/C [11]?
**A.** 85.8%

**Q.** And the viability, T/C [12]?
**A.** 87.5%

**Q.** What about the viability, T/C [13] of the same molecule?
**A.** 85.6%

**Q.** And the viability, T/C [14]?
**A.** 69.4%

**Q.** What about the viability, T/C [15] of the same molecule?
**A.** 96.1%

**Q.** And the viability, T/C [16]?
**A.** 83.3%

**Q.** What about the viability, T/C [17] of the same molecule?
**A.** 89.7%

**Q.** And the viability, T/C [18]?
**A.** 92.2%

**Q.** And the viability, T/C [19]?
**A.** 88.6%

**Q.** And the viability, T/C [20]?
**A.** 85.8%

**Q.** What about the viability, T/C [21] of the same molecule?
**A.** 85.2%

**Q.** What about the viability, T/C [22] of the same molecule?
**A.** 104%

**Q.** What about the viability, T/C [23] of the same molecule?
**A.** 105%

**Q.** What about the viability, T/C [24] of the same molecule?
**A.** 104%

**Q.** What about the viability, T/C [25] of the same molecule?
**A.** 83.1%

**Q.** What about the viability, T/C [26] of the same molecule?
**A.** 85.2%

**Q.** What about the viability, T/C [27] of the same molecule?
**A.** 93.5%

**Q.** What about the viability, T/C [28] of the same molecule?
**A.** 83.3%

**Q.** What about the viability, T/C [29] of the same molecule?
**A.** 99.8%

**Q.** What about the viability, T/C [30] of the same molecule?
**A.** 82.8%

**Q.** What about the viability, T/C [31] of the same molecule?
**A.** 81.8%

**Q.** What about the viability, T/C [32] of the same molecule?
**A.** 78.4%

**Q.** And the viability, T/C [33]?
**A.** 85.7%

**Q.** What about the viability, T/C [34] of the same molecule?
**A.** 80.6%

**Q.** And the viability, T/C [35]?
**A.** 87.5%

**Q.** And the viability, T/C [36]?
**A.** 76.4%
